Active and inactive are the calls of the source. No cut-off for these calls is given here.
Experiments:
[1] = test system: Bacillus subtilis; assay: Antibacterial activity against Bacillus subtilis NCCB 1089 assessed as diameter of growth inhibition zone at 0.5 umol at 37 degC after 24 hrs by agar diffusion assay; type: functional
[2] = test system: Brevibacillus brevis; assay: Antibacterial activity against Bacillus brevis NCCB 89173 assessed as diameter of growth inhibition zone at 0.5 umol at 37 degC after 24 hrs by agar diffusion assay; type: functional
[3] = test system: Bacillus pumilus; assay: Antibacterial activity against Bacillus pumilus assessed as diameter of growth inhibition zone at 0.5 umol at 26 degC after 24 hrs by agar diffusion assay; type: functional
[4] = test system: Cladosporium cucumerinum; assay: Antibacterial activity against Cladosporium cucumerinum CBS 177.54 assessed as growth inhibition at 0.5 umol at 18 degC after 3 to 5 days by agar diffusion assay; type: functional, organism-based
[5] = test system: Escherichia coli; assay: Antibacterial activity against Escherichia coli assessed as growth inhibition at 0.5 umol at 37 degC after 24 hrs by agar diffusion assay; type: functional, organism-based
[6] = test system: Bacillus subtilis; assay: Antibacterial activity against Bacillus subtilis NCCB 1089 assessed as growth inhibition at 0.5 umol at 37 degC after 24 hrs by agar diffusion assay; type: functional, organism-based
[7] = test system: Bacillus pumilus; assay: Antibacterial activity against Bacillus pumilus assessed as growth inhibition at 0.5 umol at 26 degC after 24 hrs by agar diffusion assay; type: functional, organism-based
[8] = test system: Brevibacillus brevis; assay: Antibacterial activity against Bacillus brevis NCCB 89173 assessed as growth inhibition at 0.5 umol at 37 degC after 24 hrs by agar diffusion assay; type: functional, organism-based
[9] = test system: Saccharomyces cerevisiae; assay: Antibacterial activity against Saccharomyces cerevisiae assessed as growth inhibition at 0.5 umol at 26 degC after 24 hrs by agar diffusion assay; type: functional, organism-based

Row | Compound | diameter of the inhibition zone (DIZ) [1] [mm] | diameter of the inhibition zone (DIZ) [2] [mm] | diameter of the inhibition zone (DIZ) [3] [mm] | growth inhibition (GI) [4] | growth inhibition (GI) [5] | growth inhibition (GI) [6] | growth inhibition (GI) [7] | growth inhibition (GI) [8] | growth inhibition (GI) [9]
1 | NCCC[C@H](N)CC(=O)N[C@@H]1[C@@H](O)[C@H](OC(N)=O)[C@@H](CO)O[C@H]1/N=C1\N[C@@H]2[C@H](O)CNC(=O)[C@H]2N1 [NOURSEOTHRICIN] | 14 | 25 | 25 | – | – | – | – | – | –
2 | C[C@@H](O)[C@H](NC(=O)c1cc2c([nH]c3ccc(O)cc32)c(CCC(=O)N2CCC[C@H]2C(=O)O)n1)C(=O)O | – | – | – | inactive | inactive | inactive | inactive | inactive | inactive

Source: ChEMBL document CHEMBL2331258, “HR-MALDI-MS imaging assisted screening of β-carboline alkaloids discovered from Mycena metata” (2013)
